Measured values published in publication PMC7616174, “Development of Novel 4-Arylpyridin-2-one and 6-Arylpyrimidin-4-one Positive Allosteric Modulators of the M1 Muscarinic Acetylcholine Receptor” (ChemMedChem, 2020).

Biological target: T1, hM1 mAChR (Homo sapiens, UniProt P11229)
T1 construct: expressed in transfected cells
T1 sequence (P11229 1-460): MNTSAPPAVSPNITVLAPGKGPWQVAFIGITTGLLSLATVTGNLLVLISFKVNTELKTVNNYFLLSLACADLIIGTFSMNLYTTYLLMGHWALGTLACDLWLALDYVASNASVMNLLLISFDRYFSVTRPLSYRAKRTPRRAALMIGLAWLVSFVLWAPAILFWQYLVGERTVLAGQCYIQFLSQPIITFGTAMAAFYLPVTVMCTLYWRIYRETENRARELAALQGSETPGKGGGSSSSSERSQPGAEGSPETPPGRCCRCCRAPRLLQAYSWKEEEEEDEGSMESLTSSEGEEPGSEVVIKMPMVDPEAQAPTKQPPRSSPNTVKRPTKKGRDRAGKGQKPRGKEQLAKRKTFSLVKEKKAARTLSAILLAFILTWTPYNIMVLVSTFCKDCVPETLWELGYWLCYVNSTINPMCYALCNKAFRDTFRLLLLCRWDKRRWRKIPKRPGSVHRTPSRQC
Test: IP1 accumulation assay (ACh concentration-response curves in absence or presence of modulator)
Type: cell-based
Details: FlpIn CHO hM1 cells, mean ± SEM, 3 experiments; for ΔpEC50 [1 μM]: change in ACh pEC50 in presence of M1 PAM compared to control curve / activation at 1 µM: 1 μM modulator; for activation at 1 µM: read-out: Δbaseline [1 μM]: change in basal response in presence of M1 PAM compared to control curve; for activation at 10 µM: read-out: Δbaseline [10 μM]: change in basal response in presence of M1 PAM compared to control curve
Procedure: Functional activity of the synthesized analogues as racemic mixtures was investigated in IP1 accumulation assays at the M1 mAChR, as described previously.[13–14] ACh concentration-response curves were generated in the absence or presence of a 1 and 10 μM concentration of each modulator. The change in baseline activity (Δbaseline) is an approximate measure of direct allosteric agonism (τB), whereas the pEC50 shift (ΔpEC50) is an approximate measure of functional cooperativity (αβ) of each modulator with ACh in the investigated signalling pathway. We aimed to identify modulators with various degrees of allosteric agonism and modulatory effects on ACh response, as these could generate distinct in vivo outcomes for applications in different conditions in the CNS or gastrointestinal (GI) tract.[[10g,h,j]]
The compounds were then fully characterised in two functional assays (Figure 2C and D); the Gq-coupled IP1 accumulation assay (Figure S2), which was used for the initial screening of the compounds, and a β-arrestin 2 recruitment assay (Figure S3). The operational efficacy (τB) values for the modulators and their functional cooperativity estimates with ACh (logαβACh) at both signalling pathways were estimated by applying an operational model of allosterism and agonism to the data [Eq. (3)],[16] and are listed in Table 5.
FlpIn CHO cells stably expressing the hM1 mAChR were seeded at 25000 per well of 96-well transparent cell culture plates and grown overnight. […] Cells were then stimulated with increasing concentration of ACh in the absence or presence of increasing concentrations of each modulator for 1 h at 37°C. […] Seven μL of cell lysates were transferred into wells of 384-well Proxiplates (Perki-nElmer Life Sciences), and IP1 levels were measured using the IP-One assay kit (Cisbio, Codolet, France). […] The signal was expressed as the HTRF ratio, interpolated from the standard curve, and normalized to the maximum response to ACh.
Changes in both baseline and pEC50 were quantified by subtracting the estimates at each M1 PAM concentrations with the control values. Propagation of the error on baseline and potency values were determined as follows [Eq. (1)]: σΔ=σPAM2+σcont.2 where σΔ is the standard error of the mean (SEM) for the change in value, and σPAM and σcont. are the SEM from the three-parameter logistic equation analysis in presence or absence of M1 PAM, respectively.
Functional interaction studies between ACh and allosteric modulators in IP1 and β-arrestin 2 recruitment assays were analysed according to a three-parameter logistic equation or the following operational model of allosterism and agonism [Eq. (3)].[16] E=Basal+(Em−Basal)([A](KB+αβ[B])+τB[B]EC50)^n/EC50n(KB+[B])^n+([A](KB+αβ[B])+τB[B]EC50)^n where Em is the maximal possible system response, and Basal is the response in the absence of agonist. [A] and [B] are concentrations of orthosteric and allosteric ligands, respectively. KB is the equilibrium dissociation constant of allosteric ligand, and EC50 is the concentration of orthosteric agonist required to achieve half maximal response. α and β represent the magnitude of the allosteric effects on orthosteric ligand affinity and efficacy, respectively; τB is the efficacy of allosteric ligand, and n is the slope factor of the transducer function that links occupancy to response.

Row | Molecule | ΔpEC50 [1 μM]: change in ACh pEC50 in presence of M1 PAM compared to control curve | Δbaseline [10 μM]: change in basal response in presence of M1 PAM compared to control curve (10 μM modulator) | ΔpEC50 [10 μM]: change in ACh pEC50 in presence of M1 PAM compared to control curve (10 μM modulator) | activation at 1 µM [%] | activation at 10 µM (10 μM modulator) [%]
1 | 4-(2-(Benzyloxy)phenyl)-1-(2-hydroxycyclohexyl)pyridin-2(1H)-one [Compound 27d] | 0.75±0.06 | 54.6±1.9 % of ACh maximal (Emax) response | 1.83±0.11 |  | 
2 | COc1cccc(OCc2ccc(-c3cnn(C)c3)cc2)c1-c1cc(=O)n([C@H]2CCCC[C@@H]2O)cn1 (racemic) [Compound 26c, 3-(2-Hydroxycyclohexyl)-6-(2-methoxy-6-((4-(1-methyl-1H-pyra-zol-4-yl)benzyl)oxy)phenyl)pyrimidin-4(3H)-one] | 0.02±0.06 |  |  | 1.37 ± 1.6 | 5.99 ± 1.7
3 | Cc1ccc(OCc2ccc(-c3cnn(C)c3)cc2)c(-c2ccn(C3CCCCC3O)c(=O)c2)c1 (centres unmarked) [Compound 7a, 1-(2-Hydroxycyclohexyl)-4-(5-methyl-2-((4-(1-methyl-1H-pyrazol-4-yl)benzyl)oxy)phenyl)pyridin-2(1H)-one] |  |  | 0.41±0.07 | 0.47 ± 2 | 4.4 ± 2
4 | Cc1ccc(-c2ccn(C3CCCCC3O)c(=O)c2)c(OCc2ccc(-c3cnn(C)c3)cc2)c1 (centres unmarked) [Compound 7b, 1-(2-Hydroxycyclohexyl)-4-(4-methyl-2-((4-(1-methyl-1H-pyrazol-4-yl)benzyl)oxy)phenyl)pyridin-2(1H)-one] |  |  | 0.75±0.08 | 3.5 ± 1.9 | 10.7 ± 2
5 | Cc1cc(OCc2ccc(-c3cnn(C)c3)cc2)c(-c2ccn(C3CCCCC3O)c(=O)c2)cc1C (centres unmarked) [Compound 7c, 4-(4,5-Dimethyl-2-((4-(1-methyl-1H-pyrazol-4-yl)benzyl)oxy)phenyl)-1-(2-hydroxycyclohexyl)pyridin-2(1H)-one] |  |  | 0.41±0.08 | -1.7 | 2.8 ± 1.9
6 | Cn1cc(-c2ccc(COc3ccncc3-c3ccn(C4CCCCC4O)c(=O)c3)cc2)cn1 (centres unmarked) [Compound 7d, 1’-(2-Hydroxycyclohexyl)-4-((4-(1-methyl-1H-pyrazol-4-yl)benzyl)oxy)-[3,4’-bipyridin]-2’(1’H)-one] | 0.04±0.09 |  | 0.21±0.10 | -1.09 | 1.24 ± 3
7 | Cn1cc(-c2ccc(COc3cnccc3-c3ccn(C4CCCCC4O)c(=O)c3)cc2)cn1 (centres unmarked) [Compound 7e, 1-(2-Hydroxycyclohexyl)-3’-((4-(1-methyl-1H-pyrazol-4-yl)benzyl)oxy)-[4,4’-bipyridin]-2(1H)-one] | 1.17±0.22 |  | 1.47±0.35 | 41.9 ± 4.4 | 79.4 ± 2.9
8 | Cn1cc(-c2ccc(COc3cccc(O)c3-c3ccn(C4CCCCC4O)c(=O)c3)cc2)cn1 (centres unmarked) [Compound 7g, 4-(2-Hydroxy-6-((4-(1-methyl-1H-pyrazol-4-yl)benzyl)oxy)phenyl)-1-(2-hydroxycyclohexyl)pyridin-2(1H)-one] | 0.14±0.19 |  | 0.35±0.34 | 12.8 ± 4.4 | 45.8 ± 4.8
9 | Cn1cc(-c2ccc(Cn3cccc(-c4ccn(C5CCCCC5O)c(=O)c4)c3=O)cc2)cn1 (centres unmarked) [Compound 9, 1’-(2-Hydroxycyclohexyl)-1-(4-(1-methyl-1H-pyrazol-4-yl)benzyl)-[3,4’-bipyridine]-2,2’(1H,1’H)-dione] | 0.12±0.09 |  | 0.69±0.08 | 5 ± 2 | 5.6 ± 2
10 | Cn1cc(-c2ccc(COc3ccccc3-c3ccn(C4CCCCC4)c(=O)c3)cc2)cn1 [Compound 13b, 1-Cyclohexyl-4-(2-((4-(1-methyl-1H-pyrazol-4-yl)benzyl)oxy)phenyl)pyridin-2(1H)-one] |  |  | 0.17±0.06 | 5 ± 1.7 | -1.9
11 | COC1CCCCC1n1ccc(-c2ccccc2OCc2ccc(-c3cnn(C)c3)cc2)cc1=O (centres unmarked) [Compound 14, 1-(2-Methoxycyclohexyl)-4-(2-((4-(1-methyl-1H-pyrazol-4-yl)benzyl)oxy)phenyl)pyridin-2(1H)-one] | 0.03±0.06 |  | 0.96±0.07 | 5.8 ± 1.5 | 22.1 ± 1.6
12 | Cn1cc(-c2ccc(COc3ccccc3-c3ccc(-c4ccccc4O)cc3)cc2)cn1 [Compound 19, 2“-((4-(1-Methyl-1H-pyrazol-4-yl)benzyl)oxy)-[1,1’:4’,1“-terphenyl]-2-ol] |  |  | 0.27±0.06 |  | 
13 | Cn1cc(-c2ccc(COc3ccsc3-c3cc(=O)n(C4CCCCC4O)cn3)cc2)cn1 (centres unmarked) [Compound 26b, 3-(2-Hydroxycyclohexyl)-6-(3-((4-(1-methyl-1H-pyrazol-4-yl)benzyl)oxy)thiophen-2-yl)pyrimidin-4(3H)-one] |  |  |  | 100 | 100
14 | Cn1cc(-c2ccc(COc3cccc(O)c3-c3cc(=O)n(C4CCCCC4O)cn3)cc2)cn1 (centres unmarked) [Compound 26d, 6-(2-Hydroxy-6-((4-(1-methyl-1H-pyrazol-4-yl)benzyl)oxy)phenyl)-3-(2-hydroxycyclohexyl)pyrimidin-4(3H)-one] | 1.49±0.42 |  |  | 82.1 ± 3 | 100
15 | O=c1cc(-c2ccccc2OCc2ccc(-n3cccn3)cc2)ncn1C1CCCCC1O (centres unmarked) [Compound 27c, 6-(2-((4-(1H-Pyrazol-1-yl)benzyl)oxy)phenyl)-3-(2-hydroxycyclo-hexyl)pyrimidin-4(3H)-one] |  |  |  | 100 | 100
16 | COC1CCCCC1n1cnc(-c2ccccc2OCc2ccc(-c3cnn(C)c3)cc2)cc1=O (centres unmarked) [Compound 28a, 3-(2-Methoxycyclohexyl)-6-(2-((4-(1-methyl-1H-pyrazol-4-yl)benzyl)oxy)phenyl)pyrimidin-4(3H)-one] | 0.40±0.24 |  | 0.26±0.55 | 53.7 ± 3.8 | 72.9 ± 3.6
